{
  "source": "patent US20050272606A1",
  "about": "“Plant life control composition” (priority 1999, published 2005)",
  "test_in_all_cases": "POST trolley belt sprayer test (Example 3)",
  "details_in_all_cases": "600 g/ha, 14 DAT",
  "key": {"CRB (Crabgrass)": {"test_system": "CRB (Crabgrass)", "type": "in vivo, Digitaria sanguinalis", "protocol": "(§1) All POST crops and weeds plants were grown into separate square pots which measured 10×10 cm. The soil used was amended with Redi-Eartho Plug and Seedling Mix in a one to one ratio. Ten to twenty seeds per small seeded species were planted per pot. Five to ten seeds were planted with large seeded species. Seeds were sown 0.5 inches deep. Generally, POST plants were 7 to 21 days old (from planting) when sprayed. Grasses were in the 2-4 leaf stage and broadleaf weeds were in the 1-2 true leaf stage.\n(§2) The spray volume was 50 gallons per acre (468 I/Ha). Rates of application (grams per hectare) varied depending on the concentration of chemical within each individual spray solution. Technical samples were dissolved in acetone. Formulations are suspended in water. All applications were made using a trolley belt sprayer. The test plants were placed on the belt inside the spray hood. Then the spray nozzle which is attached to the trolley, moves mechanically over the top of the plants. The spray nozzle delivers a flat fan spray pattern and is a typical nozzle used in herbicide field applications. The belt carries the plants out of the spray hood and into a drying chamber.\n(§3) After spray application, the test plants were placed in a vented cabinet until dry, then placed in the greenhouse. […] The trolley sprayer settings were as follows (50 (GPA) Gallons Per Acre or (468 L/Ha): […]"}, "WHT (Wheat)": {"test_system": "WHT (Wheat)", "type": "in vivo, Triticum spp.", "protocol": "as §1, §2, §3"}, "NS (Nightshade)": {"test_system": "NS (Nightshade)", "type": "in vivo, Solanum nigrum", "protocol": "as §1, §2, §3"}, "VEL (Velvetleaf)": {"test_system": "VEL (Velvetleaf)", "type": "in vivo, Abutilon theophrasti", "protocol": "as §1, §2, §3"}, "RYE (Ryegrass)": {"test_system": "RYE (Ryegrass)", "type": "in vivo, Lolium multiflorum", "protocol": "as §1, §2, §3"}, "SIG (Signalgrass)": {"test_system": "SIG (Signalgrass)", "type": "in vivo, Brachiaria platyphylla", "protocol": "as §1, §2, §3"}, "BYG (Barnyardgrass)": {"test_system": "BYG (Barnyardgrass)", "type": "in vivo, Echinochloa crus-galli", "protocol": "as §1, §2, §3"}, "FOX (Foxtail)": {"test_system": "FOX (Foxtail)", "type": "in vivo, Setaria viridis", "protocol": "as §1, §2, §3"}, "[1]": {"test_system": "Grassy Weeds (Avg Monocot)", "type": "in vivo", "protocol": "as §1, §2, §3"}, "[2]": {"test_system": "Broadleaf Weeds (Avg Dicot)", "type": "in vivo", "protocol": "as §1, §2, §3"}, "SMT (Smartweed)": {"test_system": "SMT (Smartweed)", "type": "in vivo, Polygonum lapathifolium", "protocol": "as §1, §2, §3"}, "TEA (Teaweed)": {"test_system": "TEA (Teaweed)", "type": "in vivo, Sida spinosa", "protocol": "as §1, §2, §3"}, "MG (Morningglory)": {"test_system": "MG (Morningglory)", "type": "in vivo, Ipomoea hederacea", "protocol": "as §1, §2, §3"}, "PIG (Pigweed)": {"test_system": "PIG (Pigweed)", "type": "in vivo, Amaranthus retroflexus", "protocol": "as §1, §2, §3"}, "BP (Blue panicum)": {"test_system": "BP (Blue panicum)", "type": "in vivo, Panicum antidotale", "protocol": "as §1, §2, §3"}, "SPR (Sprangletop)": {"test_system": "SPR (Sprangletop)", "type": "in vivo, Leptochloa dubia", "protocol": "as §1, §2, §3"}, "NUT (Nutsedge)": {"test_system": "NUT (Nutsedge)", "type": "in vivo, Cyperus esculentus", "protocol": "as §1, §2, §3"}, "SOY (Soybean)": {"test_system": "SOY (Soybean)", "type": "in vivo, Glycine max", "protocol": "as §1, §2, §3"}, "BID (Bidens)": {"test_system": "BID (Bidens)", "type": "in vivo, Bidens pilosa", "protocol": "as §1, §2, §3"}, "COT (Cotton)": {"test_system": "COT (Cotton)", "type": "in vivo, Gossypium hirsutum", "protocol": "as §1, §2, §3"}, "CKL (Cocklebur)": {"test_system": "CKL (Cocklebur)", "type": "in vivo, Xanthium pensylvanicum", "protocol": "as §1, §2, §3"}, "RI (Rice)": {"test_system": "RI (Rice)", "type": "in vivo, Oryza sativa", "protocol": "as §1, §2, §3"}, "CN (Corn)": {"test_system": "CN (Corn)", "type": "in vivo, Zea mays", "protocol": "as §1, §2, §3"}},
  "data": [
    {"smiles": "C[n+]1ccc(-c2cc[n+](C)cc2)cc1", "note": "[Paraquat]", "values": [
      {"measurement": "% POST Control of Grassy Weeds", "setting": "CRB (Crabgrass)", "value": 90, "unit": "%"},
      {"measurement": "% Crop Injury", "setting": "WHT (Wheat)", "value": 100, "unit": "%"},
      {"measurement": "% POST Control of Broadleaf Weeds", "setting": "NS (Nightshade)", "value": 100, "unit": "%"},
      {"measurement": "% POST Control of Broadleaf Weeds", "setting": "VEL (Velvetleaf)", "value": 100, "unit": "%"},
      {"measurement": "% POST Control of Grassy Weeds", "setting": "RYE (Ryegrass)", "value": 100, "unit": "%"},
      {"measurement": "% POST Control of Grassy Weeds", "setting": "SIG (Signalgrass)", "value": 85, "unit": "%"},
      {"measurement": "% POST Control of Grassy Weeds", "setting": "BYG (Barnyardgrass)", "value": 95, "unit": "%"},
      {"measurement": "% POST Control of Grassy Weeds", "setting": "FOX (Foxtail)", "value": 90, "unit": "%"},
      {"measurement": "% POST Control of Grassy Weeds, Avg Monocot", "setting": "[1]", "value": 93, "unit": "%"},
      {"measurement": "% POST Control of Broadleaf Weeds, Avg Dicot", "setting": "[2]", "value": 98, "unit": "%"},
      {"measurement": "% POST Control of Broadleaf Weeds", "setting": "SMT (Smartweed)", "value": 100, "unit": "%"},
      {"measurement": "% POST Control of Broadleaf Weeds", "setting": "TEA (Teaweed)", "value": 85, "unit": "%"},
      {"measurement": "% POST Control of Broadleaf Weeds", "setting": "MG (Morningglory)", "value": 100, "unit": "%"},
      {"measurement": "% POST Control of Broadleaf Weeds", "setting": "PIG (Pigweed)", "value": 100, "unit": "%"},
      {"measurement": "% POST Control of Grassy Weeds", "setting": "BP (Blue panicum)", "value": 100, "unit": "%"},
      {"measurement": "% POST Control of Grassy Weeds", "setting": "SPR (Sprangletop)", "value": 100, "unit": "%"},
      {"measurement": "% POST Control of Grassy Weeds", "setting": "NUT (Nutsedge)", "value": 85, "unit": "%"},
      {"measurement": "% Crop Injury", "setting": "SOY (Soybean)", "value": 100, "unit": "%"},
      {"measurement": "% POST Control of Broadleaf Weeds", "setting": "BID (Bidens)", "value": 100, "unit": "%"},
      {"measurement": "% Crop Injury", "setting": "COT (Cotton)", "value": 100, "unit": "%"},
      {"measurement": "% POST Control of Broadleaf Weeds", "setting": "CKL (Cocklebur)", "value": 100, "unit": "%"},
      {"measurement": "% Crop Injury", "setting": "RI (Rice)", "value": 100, "unit": "%"},
      {"measurement": "% Crop Injury", "setting": "CN (Corn)", "value": 85, "unit": "%"}
    ]}
  ]
}
